Legend:
Type in all cases: cell-based
DU145 cells [1] = assay: Cell scattering assay; conditions: 24 hours, SRI 31215 10 μM; for fibroblast-induced cell scattering: 18Co conditioned media, JNJ 38877605 1 μM
Experimental: DU145 cells were cultured in 6-well tissue culture plates at a density of 1×10^3 cells per well. After colonies formed (6-8 days), cells were serum-starved overnight and were then treated with recombinant HGF (10 ng/ml) or with conditioned media from 18Co fibroblasts in the presence or absence of SRI 31215 (10 μM) or the MET kinase inhibitor JNJ 38877605 (1 μM) for 24 hours. Cells were washed with PBS and colonies were fixed and stained with 0.5% crystal violet solution in 6% glutaraldehyde.

DU145 cells [2] = assay: Scratch assay and transwell migration assay; conditions: SRI 31215 10 μM, JNJ 38877605 1 μM; for fibroblast-induced migration: 18Co or WI38 conditioned media
Experimental: Cancer cells were seeded in 12-well plates and allowed to reach confluence. Following overnight serum-starvation, a scratch/wound was introduced into the cell monolayer with a sterile tip. Cells were cultured in serum-free media or were treated with recombinant HGF (10 ng/ml) or serum-free conditioned media from fibroblasts (50%) in the presence or absence of SRI 31215 or JNJ 38877605. Images of migrating cells were captured at 0, 12 and 24 hours after the treatment.
Cytoselect cell migration assay kit was purchased from Cell Biolabs, Inc and the assay was performed according to the manufacturer's instructions. Briefly, DU145 cells (75×10^3) were seeded in transwells ([…] inserts) in serum-free media and were stimulated with recombinant HGF or with conditioned media from 18Co or WI38 fibroblasts (in the absence or the presence of SRI 31215 or JNJ 38877605). Cells were incubated for 12 hours and non-migratory cells were gently removed from inside of the inserts. Inserts were stained for 10 minutes at room temperature, transferred to wells containing 200 μl of extraction buffer and incubated for 10 minutes on a shaker. The optical density (OD) was measured at 560 nm.

RKO cells = assay: Clonogenic growth and viability of HGF-producing RKO cells with EGFR inhibitors; conditions: SRI 31215 10 μM, JNJ 38877605 1 μM; for sensitization to gefitinib: HGF-producing RKO cells; for clonogenic growth, agent alone / clonogenic growth, combination with cetuximab: RKO cells, HAI-1 20 nM; for clonogenic growth, combination with cetuximab: cetuximab 50 μg/ml
Experimental: Figure 5 Inhibitors of HGF/MET signaling prevent the innate and acquired resistance to cetuximab A. and B. RKO cells were treated with cetuximab (50 μg/ml) (A) of gefitinib (B) alone, or in combination with SRI 31215 (10 μM), JNJ 38877605 (1 μM) or recombinant HAI-1 (20 nM) as indicated and clonogenic growth was monitored as described in Materials and Methods. C. and D. Caco2 cells were treated with cetuximab or gefitinib alone or in the presence of CM from fibroblasts and SRI 31215 (10 μM) or JNJ 38877605 (1 μM) as indicated. #: p<0.05, compared to control (CTRL); NS: not significant.
Cell titer-glo luminescent cell viability assay kit was purchased from Promega. […] For clonogenic assay, cells were seeded in 6-well plates at a density of 400 cells per well, serum starved overnight, and treated as indicated. After colony formation (8-12 days), cells were stained with crystal violet and the number of colonies was determined using ImageQuantTL (GE Health Care Life Sciences).
Supplementary Figure S3: Inhibition of HGF/MET signaling sensitizes HGF-producing RKO colon cancer cells to gefitinib. A. RKO cells (HGF+) and B. HT29 (HGF-) cells were treated with gefitinib (5 μM) in the absence or the presence of SRI 31215 (10 μM) or JNJ 38877605 (1 μM) as indicated and viability was determined 24 and 72 hours after treatment. # indicates statistical significance compared to samples treated with gefitinib alone as determined by Students’ t-test (p<0.05).
(also on this page, place not known: www.impactjournals.com/oncotarget/ Oncotarget, Materials 2016 Supplementary (HGF +) (HGF -)) […]

DU145 cells [3] = assay: EMT markers E-cadherin and vimentin (immunofluorescence, immunoblotting); conditions: 24 hours, SRI 31215 10 μM, JNJ 38877605 1 μM; for fibroblast-induced expression of vimentin / fibroblast-induced inhibition of E-cadherin: 18Co conditioned media
Experimental: Figure 3 SRI 31215 inhibits fibroblast-induced EMT in DU145 cells Cells were stimulated with HGF or 18Co conditioned media for 24 hours in the absence or presence of SRI 31215 (10 μM) or JNJ 38877605 (1 μM) as indicated. The expression of E-cadherin was monitored by immunofluorescence A. The levels of E-cadherin and vimentin were also determined by immunoblotting B.
Immunoblotting was performed using standard procedures. Membranes were blocked with 5% non-fat milk for 1 hour at RT, and incubated with primary antibodies overnight at 4°C. Primary antibodies used were anti-HGF (R&D Systems), anti-MET, anti-p-MET, anti-p-GAB1, anti-p-AKT, anti-p-ERK1/2, anti-vimentin (Cell Signaling Technology), anti-p-STAT3 (Upstate Cell Signaling Solutions), anti-E-cadherin (BD Transduction Laboratories), anti-β-actin (Sigma). Following washing with TBS-T buffer, membranes were incubated with horseradish peroxidase-conjugated secondary antibodies for 1 hour and then washed with TBS-T. Immunoblots were developed using the chemiluminescent detection system with ECL (Amersham). Protein loading was normalized by probing blots for the expression of β-actin.
Cells were seeded at 1×10^3 cells per well in chamber slides. Following overnight serum-starvation, cells were treated with recombinant HGF (10 ng/ml) or conditioned media prepared from fibroblasts (50%) in the presence or absence of SRI 31215 (10 μM) or JNJ 38877605 (1 μM) for 24 hours. Cells were washed with PBS, fixed in ice-cold methanol/acetic acid solution [95:5 (v/v)] for 20 minutes at-20°C and incubated with anti-E-cadherin antibodies overnight at 4°C. Slides were washed with PBS, incubated with Alexa Fluor 568 conjugated secondary antibody for 1 hour at 37°C and examined with a fluorescent microscope.

DiFi cells = assay: Proliferation of DiFi cells induced by HGF or fibroblast conditioned medium; conditions: 48 hours; for fibroblast-induced proliferation: fibroblast conditioned medium
Experimental: Cell lysates from EBC cells were used as control for pMET. B. DiFi cells were cultured in the presence of
HGF or fibroblast conditioned medium in the absence or the presence of JNJ38877605 or SRI 31215 for 48 hours. Neutralization of HGF
in fibroblast conditioned medium by anti-HGF antibodies inhibits growth promoting activity of fibroblasts (data not shown). […]

For `Cn1cc(-c2ccc3nnc(C(F)(F)c4ccc5ncccc5c4)n3n2)cn1` [JNJ 38877605, reference compound], the fibroblast-induced cell scattering (DU145 cells [1]) was “prevented”, the fibroblast-induced migration (DU145 cells [2]) was “completely prevented” and the HGF-induced migration (DU145 cells [2]) was “completely prevented”. The sensitization to gefitinib (RKO cells) was “sensitized”, the “clonogenic growth, agent alone” value (RKO cells) was “did not impact” and the “clonogenic growth, combination with cetuximab” value (RKO cells) was “significant decrease”. For the same compound, the “fibroblast-induced expression of vimentin” value (DU145 cells [3]) was “prevented”, the “fibroblast-induced inhibition of E-cadherin” value (DU145 cells [3]) was “prevented” and the “expression of E-cadherin in HGF-treated cells” value (DU145 cells [3]) was “restored”. For the same compound, the “proliferation induced by recombinant, active HGF” value (DiFi cells) was “prevented” and the fibroblast-induced proliferation (DiFi cells) was “prevented”.

For `CC1CN(CC2CCN(Cc3ccccc3)CC2)C(=O)N(c2cccc(C(=N)N)c2)C1` (stereo not shown) [SRI 31215, 3-(3-((1-benzylpiperidin-4-yl)methyl)-5-methyl-2-oxotetrahydropyrimidin-1(2H)-yl)benzimidamide], the fibroblast-induced cell scattering (DU145 cells [1]) was “prevented”, the “scattering induced by active HGF” value (DU145 cells [1]) was “did not interfere” and the fibroblast-induced migration (DU145 cells [2]) was “inhibited”. For the same compound, the HGF-induced migration (DU145 cells [2]) was “did not interfere”, the sensitization to gefitinib (RKO cells) was “sensitized” and the “clonogenic growth, agent alone” value (RKO cells) was “did not impact”. For the same compound, the “clonogenic growth, combination with cetuximab” value (RKO cells) was “significant decrease”, the “fibroblast-induced expression of vimentin” value (DU145 cells [3]) was “prevented” and the “fibroblast-induced inhibition of E-cadherin” value (DU145 cells [3]) was “prevented”. For the same compound, the “proliferation induced by recombinant, active HGF” value (DiFi cells) was “did not influence” and the fibroblast-induced proliferation (DiFi cells) was “as efficient as JNJ 38877605 in preventing”.

— article PMC5045412, “Inhibition of pro-HGF activation by SRI31215, a novel approach to block oncogenic HGF/MET signaling” (Oncotarget, 2016)
